Laboratory results from publication PMC7337905, “Nitrosative stress inhibits aminoacylation and editing activities of mitochondrial threonyl-tRNA synthetase by S-nitrosation” (Nucleic Acids Research, 2020).
Residue numbers refer to the chain shown, from its start.

Key:
Format in all cases: biochemical
[1] = molecular target: T1, hmtThrRS (Homo sapiens, UniProt Q9BW92); assay: tRNA mischarging, […]tRNA TLC; settings: noncognate; 100 mM Ser, E. coli tRNA-Thr, 10 mM MgCl2, pH 7.5
T1 construct: gene TARS2; mature form Leu20-Phe718, 699 residues, pET28, Ni-NTA, E. coli BL21(DE3), no reducing agent, dimer
T1 sequence (Q9BW92 20-718): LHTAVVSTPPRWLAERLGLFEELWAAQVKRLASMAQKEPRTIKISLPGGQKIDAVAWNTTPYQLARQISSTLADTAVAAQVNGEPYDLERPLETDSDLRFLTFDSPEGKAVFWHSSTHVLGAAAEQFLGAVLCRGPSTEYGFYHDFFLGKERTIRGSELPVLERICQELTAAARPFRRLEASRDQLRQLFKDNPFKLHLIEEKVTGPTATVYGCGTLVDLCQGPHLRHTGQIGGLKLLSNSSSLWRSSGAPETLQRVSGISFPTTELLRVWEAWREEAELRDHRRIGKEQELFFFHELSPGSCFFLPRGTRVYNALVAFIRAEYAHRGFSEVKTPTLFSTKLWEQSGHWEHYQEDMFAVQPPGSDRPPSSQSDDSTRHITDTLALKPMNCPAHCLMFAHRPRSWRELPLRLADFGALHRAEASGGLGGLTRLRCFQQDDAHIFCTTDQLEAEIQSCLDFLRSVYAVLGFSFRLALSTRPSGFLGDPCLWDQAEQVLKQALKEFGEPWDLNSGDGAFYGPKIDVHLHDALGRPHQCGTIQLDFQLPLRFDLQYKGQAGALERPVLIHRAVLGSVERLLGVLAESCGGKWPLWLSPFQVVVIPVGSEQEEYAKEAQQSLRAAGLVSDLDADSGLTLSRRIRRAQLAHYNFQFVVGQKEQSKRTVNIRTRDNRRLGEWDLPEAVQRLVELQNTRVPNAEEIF

[2] = molecular target: T1, hmtThrRS; assay: tRNA aminoacylation, […]tRNA TLC; ATP-PPi exchange; settings: 1 mM Thr, 10 uM E. coli tRNA-Thr, 10 mM MgCl2, pH 7.5
[3] = molecular target: T2, EcThrRS (Escherichia coli, UniProt P0A8M3); assay: tRNA aminoacylation, […]tRNA TLC; settings: 1 mM Thr, E. coli tRNA-Thr, 10 mM MgCl2, pH 7.5
T2 construct: gene thrS; purified enzyme, construct not described in main text
T2 sequence (P0A8M3 whole entry): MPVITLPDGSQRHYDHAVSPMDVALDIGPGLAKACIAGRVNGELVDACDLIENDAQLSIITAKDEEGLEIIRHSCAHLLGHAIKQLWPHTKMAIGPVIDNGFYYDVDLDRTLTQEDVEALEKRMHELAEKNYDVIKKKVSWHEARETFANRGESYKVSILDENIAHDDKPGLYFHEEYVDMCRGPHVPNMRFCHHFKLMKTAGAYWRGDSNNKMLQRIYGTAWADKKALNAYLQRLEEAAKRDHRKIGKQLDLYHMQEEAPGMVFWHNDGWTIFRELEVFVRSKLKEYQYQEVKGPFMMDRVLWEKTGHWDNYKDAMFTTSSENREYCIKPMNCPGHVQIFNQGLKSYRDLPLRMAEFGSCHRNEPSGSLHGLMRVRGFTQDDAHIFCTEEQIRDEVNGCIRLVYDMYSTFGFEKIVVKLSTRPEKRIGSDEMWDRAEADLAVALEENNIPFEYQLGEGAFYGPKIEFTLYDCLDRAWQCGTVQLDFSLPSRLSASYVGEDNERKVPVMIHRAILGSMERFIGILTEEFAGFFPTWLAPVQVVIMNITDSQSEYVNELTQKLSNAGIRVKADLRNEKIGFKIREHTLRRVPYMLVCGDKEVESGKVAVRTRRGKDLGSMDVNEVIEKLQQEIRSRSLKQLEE

[4] = molecular target: T3, hmtThrRS (Homo sapiens, UniProt Q9BW92, C185S/C409S/C506S); assay: tRNA aminoacylation and posttransfer editing, […]tRNA TLC, after preincubation; settings: covalent (S-nitrosation); 1 mM GSNO preincubation; C603 mutant (only Cys603 kept of the four sites)
T3 construct: gene TARS2; mature form Leu20-Phe718, 699 residues, pET28, Ni-NTA, E. coli BL21(DE3), no reducing agent, dimer
T3 sequence (Q9BW92 20-718 C185S/C409S/C506S): T1 sequence (Q9BW92 20-718) with C166S, C390S, C487S

[5] = molecular target: T4, hmtThrRS (Homo sapiens, UniProt Q9BW92, C409S/C506S/C603S); assay: as above; settings: covalent (S-nitrosation); 1 mM GSNO preincubation; C185 mutant (only Cys185 kept of the four sites)
T4 construct: gene TARS2; mature form Leu20-Phe718, 699 residues, pET28, Ni-NTA, E. coli BL21(DE3), no reducing agent, dimer
T4 sequence (Q9BW92 20-718 C409S/C506S/C603S): T1 sequence (Q9BW92 20-718) with C390S, C487S, C584S

[6] = molecular target: T1, hmtThrRS; assay: tRNA aminoacylation and mischarging, […]tRNA TLC, after preincubation; IBP-MS of modified Cys; settings: covalent (S-nitrosation, reversed by DTT); 1 uM enzyme preincubated with 1 or 5 mM GSNO, 37 C; pH 7.5, 10 mM MgCl2
[7] = molecular target: T5, hmtThrRS (Homo sapiens, UniProt Q9BW92, C185S/C506S/C603S); assay: tRNA aminoacylation and posttransfer editing, […]tRNA TLC, after preincubation; settings: covalent (S-nitrosation); 1 mM GSNO preincubation; C409 mutant (only Cys409 kept of the four sites)
T5 construct: gene TARS2; mature form Leu20-Phe718, 699 residues, pET28, Ni-NTA, E. coli BL21(DE3), no reducing agent, dimer
T5 sequence (Q9BW92 20-718 C185S/C506S/C603S): T1 sequence (Q9BW92 20-718) with C166S, C487S, C584S

[8] = molecular target: T6, hmtThrRS (Homo sapiens, UniProt Q9BW92, C185S/C409S/C603S); assay: as above; settings: covalent (S-nitrosation); 1 mM GSNO preincubation; C506 mutant (only Cys506 kept of the four sites)
T6 construct: gene TARS2; mature form Leu20-Phe718, 699 residues, pET28, Ni-NTA, E. coli BL21(DE3), no reducing agent, dimer
T6 sequence (Q9BW92 20-718 C185S/C409S/C603S): T1 sequence (Q9BW92 20-718) with C166S, C390S, C584S

N[C@@H](CO)C(=O)O [Ser, L-Ser]
tRNA mischarging, [32P]tRNA TLC [1]: mischarging of tRNA^Thr with noncognate Ser was determined without or with H2O2 treatment

C[C@@H](O)[C@H](N)C(=O)O [Thr, L-Thr]
tRNA aminoacylation, [32P]tRNA TLC; ATP-PPi exchange [2]: The synthesis of Thr-tRNA^Thr was obviously not affected by H2O2 | tRNA aminoacylation, [32P]tRNA TLC [3]: aminoacylation activity of EcThrRS was assayed and compared

N[C@@H](CCC(=O)N[C@@H](CSN=O)C(=O)NCC(=O)O)C(=O)O [GSNO, S-nitrosoglutathione]
tRNA aminoacylation and posttransfer editing, [32P]tRNA TLC, after preincubation [4]: Both activities for the four mutants were obviously inhibited after GSNO incubation | tRNA aminoacylation and posttransfer editing, [32P]tRNA TLC, after preincubation [5]: Both activities for the four mutants were obviously inhibited after GSNO incubation | tRNA aminoacylation and mischarging, [32P]tRNA TLC, after preincubation; IBP-MS [6]: The resulting inhibition of both the aminoacylation and mischarging activities of hmtThrRS was dose-dependent | tRNA aminoacylation and posttransfer editing, [32P]tRNA TLC, after preincubation [7]: the inhibitory effect of GSNO on the C409 mutant was the most prominent | tRNA aminoacylation and posttransfer editing, [32P]tRNA TLC, after preincubation [8]: Both activities for the four mutants were obviously inhibited after GSNO incubation
